Values of other authors in patent US20100120075A1, “Composition and a method for suppressing the luminescence intensity decline in a luciferin-luciferase reaction” (priority 2008, published 2010).

System: Gaussia luciferase

Row | Molecule | deactivation of the luciferase | suppression of reaction time-dependent decline in luminescent intensity
1 | CCCCCCCCCCCCOS(=O)(=O)[O-].[Na+] [sodium dodecyl sulfate] | deactivated the luciferase | did not suppress the decline
2 | nonyl phenoxylpolyethoxylethanol [NP-40] |  | suppressed
3 | polyoxyethylene octyl phenyl ether [Triton X-100] |  | suppressed
